Entries after “also recorded” stand apart in the source; their conditions may differ. Where a SMILES comes first, the peptide text is derived from it. [ ]: non-standard residue; d: D form. Sar = CNCC(=O)O
How the values were obtained:
C1q = biological target: T1, C1q (Homo sapiens, UniProt P02745+P02746+P02747); experiment: ELISA-type assay of peptide binding to C1q; settings: binding curves and half-maximal binding, FIG. 1C, 1D; listed as 18
T1 construct: purchased Complement Technology (Tyler, Tex.)
T1 sequence (P02745 23-245): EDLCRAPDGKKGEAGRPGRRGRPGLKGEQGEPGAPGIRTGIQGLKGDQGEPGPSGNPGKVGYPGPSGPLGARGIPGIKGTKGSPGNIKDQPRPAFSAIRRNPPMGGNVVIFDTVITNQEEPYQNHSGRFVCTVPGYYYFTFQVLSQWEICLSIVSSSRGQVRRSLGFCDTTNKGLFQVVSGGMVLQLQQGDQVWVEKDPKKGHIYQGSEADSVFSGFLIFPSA
T1 sequence (P02746 28-253): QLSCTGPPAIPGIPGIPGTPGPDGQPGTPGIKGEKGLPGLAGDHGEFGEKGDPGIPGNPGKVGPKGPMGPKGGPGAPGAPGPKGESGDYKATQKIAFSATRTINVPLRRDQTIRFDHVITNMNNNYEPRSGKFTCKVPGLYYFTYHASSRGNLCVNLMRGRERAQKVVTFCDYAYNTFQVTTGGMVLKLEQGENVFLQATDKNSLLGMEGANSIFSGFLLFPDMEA
T1 sequence (P02747 29-245): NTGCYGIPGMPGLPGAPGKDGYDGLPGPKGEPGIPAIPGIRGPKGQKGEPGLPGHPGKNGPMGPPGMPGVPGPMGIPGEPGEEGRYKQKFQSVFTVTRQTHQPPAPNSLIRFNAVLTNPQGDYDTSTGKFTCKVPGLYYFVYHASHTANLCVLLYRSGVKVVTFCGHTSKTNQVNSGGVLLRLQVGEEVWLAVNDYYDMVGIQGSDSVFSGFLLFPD
Description: (§1) The plates were washed with PBST (phosphate buffered saline+0.1% Tween) and then blocked with 1% gelatin/PBS for 2 hours at room temperature. After washing, the plates were incubated with PA or sarcosine variant peptides starting at 2.5 mg/ml and then serially diluted in 1% gelatin/PBS for 1 hour at room temperature. After washing, the plates were probed with rabbit anti-PA (developed with Cocalico Biologicals, Reamstown, Pa.) at 1:1000 in 1% gelatin/PBS for 1 hour, room temperature, followed by a goat anti-rabbit HRP (Sigma Aldrich, St Louis, Mo.) at 1:1,000 in 1% gelatin/PBS for 1 hour at room temperature with a washing step in between. Wells were developed using TMB substrate solution, stopped using 1 N H2SO4, and read at 450 nm in a plate reader.
Higher concentrations of DMSO interfere with the detecting reagents resulting in a partial binding curve.

MPO heme ring = biological target: T2, MPO heme ring (Homo sapiens, UniProt P05164); experiment: MPO heme ring oxidative degradation (absorbance 300-550 nm); assay type: biochemical; settings: peptides at 3 mM, with H2O2, FIG. 3A-3H
T2 construct: purchased Lee BioSolutions (Maryland Heights, Mo.)
T2 sequence (P05164 279-745 limits assumed): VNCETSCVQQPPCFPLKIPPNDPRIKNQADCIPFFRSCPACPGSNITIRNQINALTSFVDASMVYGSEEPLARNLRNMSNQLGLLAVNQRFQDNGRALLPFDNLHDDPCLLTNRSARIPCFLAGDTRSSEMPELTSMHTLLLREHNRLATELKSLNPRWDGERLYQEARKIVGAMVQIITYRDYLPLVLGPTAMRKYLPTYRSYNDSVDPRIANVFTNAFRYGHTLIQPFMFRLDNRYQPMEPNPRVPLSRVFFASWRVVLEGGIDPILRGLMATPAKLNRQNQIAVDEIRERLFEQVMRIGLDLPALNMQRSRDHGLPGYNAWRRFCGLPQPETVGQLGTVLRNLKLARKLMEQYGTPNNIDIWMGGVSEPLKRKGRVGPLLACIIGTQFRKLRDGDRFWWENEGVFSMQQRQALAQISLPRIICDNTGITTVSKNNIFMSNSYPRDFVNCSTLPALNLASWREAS
T2 sequence (P05164 165-273 limits assumed): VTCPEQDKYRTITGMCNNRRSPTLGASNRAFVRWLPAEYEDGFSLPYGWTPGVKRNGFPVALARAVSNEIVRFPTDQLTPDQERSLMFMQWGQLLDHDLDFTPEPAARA
Description: In a 96 well plate, 0.025 ml of 1.7 mg/ml MPO was combined with 0.00125 ml of 0.5% H2O2 and 3 mM PIC1 or sarcosine variant peptides in a total volume of 0.125 ml PBS and left to incubate at room temperature for 2 minutes. Using a 96 well plate reader, the wells were scanned for absorbance from 300-550 nm to generate curves reflecting the iron state in the MPO heme ring, as previously reported.
The ability of the variants to prevent degradation of the heme ring in the MPO molecule was then evaluated. […] Degradation of the heme ring can be evaluated via spectrometric measurements of absorption of wavelengths from 300 to 550 nm.

[1] = Total Antioxidant Capacity (TAC) assay; settings: 0.03-0.25 mM, copper reducing equivalents, FIG. 4
Description: The TAC (Total Antioxidant Capacity) Assay (Cell Biolabs, Inc. San Diego, Calif.) was used to measure the antioxidant capacity of the sarcosine variants based on the reduction of copper (II) to copper (I). The assay was performed according to the recommended kit protocol.
Antioxidant activity was measured in copper reducing equivalents (CRE). Peptides were tested over a range of concentrations from 0.03-0.25 mM then compared to the standard.

myeloperoxidase (MPO) = biological target: T3, myeloperoxidase (MPO) (Homo sapiens, UniProt P05164); experiment: MPO peroxidase activity, TMB-based assay; assay type: biochemical; settings: dose-response and half-maximal inhibition, FIG. 2A, 2B
T3 construct: purchased Lee BioSolutions (Maryland Heights, Mo.)
T3 sequence (P05164 279-745 limits assumed): as the sequence (P05164 279-745 limits assumed) above
T3 sequence (P05164 165-273 limits assumed): as the sequence (P05164 165-273 limits assumed) above
Description: PIC1 and sarcosine variants were diluted to 25 mg/ml and then serially titrated in a 96 well plate at a volume of 0.02 ml. Myeloperoxidase (MPO) was diluted to 20 μg/ml and 0.02 ml was added to the titrated peptides. TMB (3,3′,5,5′-tetramethylbenzidine) (0.1 ml) was added to each well for 2 minutes, followed by 0.1 ml of 2.5 N H2SO4 for another 2 minutes, and then read on a 96 well plate reader (BioTek) at 450 nm.
In this assay, the variants were tested for MPO inhibition over a range of concentrations. Strong MPO inhibition was found for all variants with the exception of the no-cysteine variant (C9,10).

[2] = tested on: antibody-initiated complement activation (ABO incompatible hemolysis)
Description: (§2) For hemolytic complement assays, human red blood cells (RBCs) from type AB donors were purified, washed and standardized to 1×10^9 cells/ml, as previously described. Human sera from type 0 donors at a 20% final concentration was combined with […] PIC1 or sarcosine variant peptides, and the volume was brought up to 0.15 ml with GVBS^++ and […] RBCs. For factor B-depleted sera hemolytic assays, a final of 0.005% factor B depleted sera was incubated with […] PIC1 or sarcosine variant peptides with 0.1 ml antibody-sensitized sheep red blood cells (EA) in a final volume of 0.75 ml GVBS^++. The samples were incubated for one hour at 37° C. Then, 1.0 ml of GVBS^−− was added to the factor B-depleted samples to stop the reaction. The samples were spun at 3,000 rpm for 5 minutes. The supernatant was then collected and read at 412 nm. An analysis was performed to represent the values as a percent of the positive control, which consists of human 0 sera and AB red blood cells in GVBS^++ buffer.
(§3) An evaluation of the extent to which the peptide variants inhibit antibody-initiated complement activation was performed. The peptide variants were tested in the following two hemolytic assays: (i) an ABO incompatibility ex vivo assay and (ii) a classical pathway CH50-type assay in factor B-depleted sera.
In the ABO incompatibility hemolytic assay, purified erythrocytes from a ‘type AB+’ donor were incubated with sera from a ‘type 0’ subject containing anti-A and anti-B antibodies; peptides were tested at 1.8 mM.

[3] = tested on: classical complement pathway; settings: peptides at 0.4 mM, compared with PA-dPEG24, FIG. 1B
Description: as §2, §3
A CH50-type hemolytic assay was then performed. with antibody-sensitized sheep erythrocytes, isolating the classical pathway by utilizing factor B-depleted sera; peptides were tested at 0.4 mM.

MPO = biological target: T4, MPO (Homo sapiens, UniProt P05164); experiment: plate-based assay of binding to solid phased MPO; settings: binding curves and half-maximal binding, FIG. 2C, 2D
T4 construct: purchased Lee BioSolutions (Maryland Heights, Mo.)
T4 sequence (P05164 279-745 limits assumed): as the sequence (P05164 279-745 limits assumed) above
T4 sequence (P05164 165-273 limits assumed): as the sequence (P05164 165-273 limits assumed) above
Description: as §1
A plate-based assay was performed to test the binding of the peptide variants to solid phased MPO. MPO binding was identified for all variants, except for C9,10.

purified C1q = purified C1q (UniProt P02745); experiment: cell-based or functional assay
purified C1q, sequence (P02745 23-245 limits assumed, chain 1 of 3): as the sequence (P02745 23-245) above
purified C1q, sequence (P02746 28-253 limits assumed, chain 2 of 3, further chain): as the sequence (P02746 28-253) above
purified C1q, sequence (P02747 29-245 limits assumed, chain 3 of 3, further chain): as the sequence (P02747 29-245) above

CC[C@H](C)[C@H](N)C(=O)N[C@@H](C)C(=O)N[C@@H](CC(C)C)C(=O)N[C@H](C(=O)N[C@@H](CC(C)C)C(=O)N[C@@H](CCC(=O)O)C(=O)N1CCC[C@H]1C(=O)N(C)CC(=O)N[C@@H](CS)C(=O)N[C@@H](CS)C(=O)N[C@@H](CCC(N)=O)C(=O)N[C@@H](CCC(=O)O)C(=O)N[C@@H](CCCNC(=N)N)C(=O)N[C@@H](C)C(=O)N[C@@H](C)C(=O)O)[C@@H](C)CC [I8, H2N-IALILEP(Sar)CCQERAA-OH] (H-IALILEP[Sar]CCQERAA-OH)
binding to C1q, in words (C1q): superior binding to C1q as compared with the other peptides; also recorded: slightly superior to that of PA-dPEG24 | inhibition of heme ring degradation, in words (MPO heme ring): near perfect preservation of the heme ring absorption spectrum | total antioxidant capacity, in words [1]: antioxidant capacity approaching that of PA-dPEG24 | MPO inhibition, in words (myeloperoxidase (MPO)): greatest potency among the different variants | complement inhibition overall, in words ([2]; both hemolytic complement inhibition assays): superior inhibition of antibody-initiated complement activation and hemolysis compared with PA and other peptide variants | inhibition of ABO incompatible hemolysis, in words ([2]; peptides at 1.8 mM, compared with PA-dPEG24, FIG. 1A): inhibited ABO incompatible hemolysis to a greater extent than did the PA-dPEG24 | inhibition of classical pathway hemolysis, in words [3]: superior activity | binding to MPO, in words (MPO): superior binding to MPO, as compared with the other sarcosine variants

PA-I8Sar (H2N-IALILEP(Sar)CCQERAA-OH) (peptide)
inhibition of classical pathway hemolysis in factor B-depleted sera, more than PA-dPEG24 (peptides at 0.4 mM) (purified C1q): 75%
